Data on one compound can be found in publication PMC5218480 (PLoS ONE, 2017).

This experiment has as its system MV-4-11 cells. Put plainly: Gene expression microarray analysis (Affymetrix PrimeView) and GSEA. Details: RFU PODN (11730768_x_at) / Fold change /veh PODN (11730768_x_at) / RFU LINC00158 (11744669_a_at) / Fold change /veh LINC00158 (11744669_a_at) / RFU DUSP10 (11751237_a_at) / Fold change /veh DUSP10 (11751237_a_at) / RFU ID3 (11757404_x_at) / Fold change /veh ID3 (11757404_x_at) / RFU PLEKHG5 (11737974_s_at) / Fold change /veh PLEKHG5 (11737974_s_at) / RFU LRRC4B (11730491_at) / Fold change /veh LRRC4B (11730491_at) / RFU GIMAP4 (11747438_a_at) / Fold change /veh GIMAP4 (11747438_a_at) / RFU KRT8 (11758183_x_at) / Fold change /veh KRT8 (11758183_x_at) / RFU CNN1 (11734310_a_at) / Fold change /veh CNN1 (11734310_a_at) / RFU VPS37D (11726825_at) / Fold change /veh VPS37D (11726825_at) / RFU C10orf10 (11716522_x_at) / Fold change /veh C10orf10 (11716522_x_at) / RFU KIR2DL2 /// KIR2DL4 /// KIR2DL5A /// KIR2DL5B /// KIR2DS1 /// KIR2DS2 /// KIR2DS3 /// KIR2DS4 /// KIR3DL3 /// KIR3DL3 /// KIR3DS1 (11738374_at) / Fold change /veh KIR2DL2 /// KIR2DL4 /// KIR2DL5A /// KIR2DL5B /// KIR2DS1 /// KIR2DS2 /// KIR2DS3 /// KIR2DS4 /// KIR3DL3 /// KIR3DL3 /// KIR3DS1 (11738374_at) / RFU C1QL1 (11718748_at) / Fold change /veh C1QL1 (11718748_at) / RFU TMPRSS4 (11747572_a_at) / Fold change /veh TMPRSS4 (11747572_a_at) / RFU HAMP (11756126_x_at) / Fold change /veh HAMP (11756126_x_at) / RFU RNFT2 (11725882_a_at) / Fold change /veh RNFT2 (11725882_a_at) / RFU NR4A2 (11747474_a_at) / Fold change /veh NR4A2 (11747474_a_at) / RFU ABCC12 (11746883_a_at) / Fold change /veh ABCC12 (11746883_a_at) / RFU TMEM136 (11760407_x_at) / Fold change /veh TMEM136 (11760407_x_at) / RFU CLDN22 /// WWC2 (11732394_at) / Fold change /veh CLDN22 /// WWC2 (11732394_at) / RFU HLA-DPB1 (11760878_x_at) / Fold change /veh HLA-DPB1 (11760878_x_at) / RFU SPINT1 (11716480_a_at) / Fold change /veh SPINT1 (11716480_a_at) / RFU GAP43 (11754022_s_at) / Fold change /veh GAP43 (11754022_s_at) / RFU A4GNT (11735810_at) / Fold change /veh A4GNT (11735810_at) / RFU PRB3 (11715151_x_at) / Fold change /veh PRB3 (11715151_x_at) / RFU TUBB4B (11761932_at) / Fold change /veh TUBB4B (11761932_at) / RFU CAPN14 (11732068_a_at) / Fold change /veh CAPN14 (11732068_a_at) / RFU TMCC2 (11721928_a_at) / Fold change /veh TMCC2 (11721928_a_at) / RFU IRGQ (11745062_a_at) / Fold change /veh IRGQ (11745062_a_at) / RFU FAM174B (11720279_a_at) / Fold change /veh FAM174B (11720279_a_at) / RFU TMPRSS4 (11748680_a_at) / Fold change /veh TMPRSS4 (11748680_a_at) / RFU FAM212B (11763350_a_at) / Fold change /veh FAM212B (11763350_a_at) / RFU PLEKHG5 (11743358_a_at) / Fold change /veh PLEKHG5 (11743358_a_at) / RFU ZSCAN30 (11745921_a_at) / Fold change /veh ZSCAN30 (11745921_a_at) / RFU CMKLR1 (11741424_a_at) / Fold change /veh CMKLR1 (11741424_a_at) / RFU LOC101060620 /// MAPK8IP1 (11723275_at) / Fold change /veh LOC101060620 /// MAPK8IP1 (11723275_at) / RFU SPTSSB (11747773_x_at) / Fold change /veh SPTSSB (11747773_x_at) / RFU PRSS12 (11739890_at) / Fold change /veh PRSS12 (11739890_at) / RFU BIN1 (11741810_x_at) / Fold change /veh BIN1 (11741810_x_at) / RFU WNT11 (11732464_a_at) / Fold change /veh WNT11 (11732464_a_at) / RFU C10orf10 (11716521_a_at) / Fold change /veh C10orf10 (11716521_a_at) / RFU C5orf56 (11738089_at) / Fold change /veh C5orf56 (11738089_at) / RFU CYB561 (11721691_x_at) / Fold change /veh CYB561 (11721691_x_at) / RFU ANKRD19P (11752326_a_at) / Fold change /veh ANKRD19P (11752326_a_at) / RFU OR2T12 /// OR2T33 /// OR2T8 (11738714_s_at) / Fold change /veh OR2T12 /// OR2T33 /// OR2T8 (11738714_s_at) / RFU VCAN (11748164_a_at) / Fold change /veh VCAN (11748164_a_at) / RFU JSRP1 (11732532_at) / Fold change /veh JSRP1 (11732532_at) / RFU KRTAP10-11 (11738290_x_at) / Fold change /veh KRTAP10-11 (11738290_x_at) / RFU MYO3A (11730013_a_at) / Fold change /veh MYO3A (11730013_a_at) / RFU EBF3 (11725865_a_at) / Fold change /veh EBF3 (11725865_a_at) / RFU CAMK2N1 (11719241_x_at) / Fold change /veh CAMK2N1 (11719241_x_at) / RFU C5orf56 (11738088_a_at) / Fold change /veh C5orf56 (11738088_a_at) / RFU OLFML3 (11715873_a_at) / Fold change /veh OLFML3 (11715873_a_at) / RFU LOC100653217 /// NTM (11731650_a_at) / Fold change /veh LOC100653217 /// NTM (11731650_a_at) / RFU MAPK11 (11762145_a_at) / Fold change /veh MAPK11 (11762145_a_at) / RFU FIZ1 (11724087_x_at) / Fold change /veh FIZ1 (11724087_x_at) / RFU OASL (11726364_x_at) / Fold change /veh OASL (11726364_x_at) / RFU SOX15 (11748057_x_at) / Fold change /veh SOX15 (11748057_x_at) / RFU CD79A (11719716_a_at) / Fold change /veh CD79A (11719716_a_at) / RFU HIST1H1D (11736915_at) / Fold change /veh HIST1H1D (11736915_at) / RFU CASKIN2 (11723855_a_at) / Fold change /veh CASKIN2 (11723855_a_at) / RFU LOC730098 (11760151_x_at) / Fold change /veh LOC730098 (11760151_x_at) / RFU OR4N2 (11742367_at) / Fold change /veh OR4N2 (11742367_at) / RFU PRRT2 (11749266_a_at) / Fold change /veh PRRT2 (11749266_a_at) / RFU SNX32 (11753110_a_at) / Fold change /veh SNX32 (11753110_a_at) / RFU CDHR5 (11726645_a_at) / Fold change /veh CDHR5 (11726645_a_at) / RFU RCAN1 (11760418_a_at) / Fold change /veh RCAN1 (11760418_a_at) / RFU FAM167A (11723789_a_at) / Fold change /veh FAM167A (11723789_a_at) / RFU FAM26E (11764081_at) / Fold change /veh FAM26E (11764081_at) / RFU ISYNA1 (11749810_s_at) / Fold change /veh ISYNA1 (11749810_s_at) / RFU ACY1 (11761880_at) / Fold change /veh ACY1 (11761880_at) / RFU 11764098_at / Fold change /veh 11764098_at / RFU SAMD14 (11745864_x_at) / Fold change /veh SAMD14 (11745864_x_at) / RFU NPB (11741838_a_at) / Fold change /veh NPB (11741838_a_at) / RFU TMPRSS6 (11731388_a_at) / Fold change /veh TMPRSS6 (11731388_a_at) / RFU KRTAP10-2 (11738614_at) / Fold change /veh KRTAP10-2 (11738614_at) / RFU ARHGAP8 /// PRR5-ARHGAP8 (11727945_x_at) / Fold change /veh ARHGAP8 /// PRR5-ARHGAP8 (11727945_x_at) / RFU KRTAP5-7 /// NADSYN1 (11734609_at) / Fold change /veh KRTAP5-7 /// NADSYN1 (11734609_at) / RFU RASL12 (11751679_a_at) / Fold change /veh RASL12 (11751679_a_at) / RFU CDKN2B (11736163_a_at) / Fold change /veh CDKN2B (11736163_a_at) / RFU PRF1 (11729649_at) / Fold change /veh PRF1 (11729649_at) / RFU, ZNF638 /// ZNF638-IT1 / Fold change vs veh, ZNF638 /// ZNF638-IT1 / RFU, PANK3 / Fold change vs veh, PANK3 / RFU, SH3YL1 / Fold change vs veh, SH3YL1 / RFU, ZEB2 / Fold change vs veh, ZEB2 / RFU, NRIP1 / Fold change vs veh, NRIP1 / RFU, PTTG1IP / Fold change vs veh, PTTG1IP / RFU, CAPN2 / Fold change vs veh, CAPN2 / RFU, MED14 / Fold change vs veh, MED14 / RFU, SNORA58 / Fold change vs veh, SNORA58 / RFU, C1orf63 / Fold change vs veh, C1orf63 / RFU, LRRFIP1 / Fold change vs veh, LRRFIP1 / RFU, NDUFAF7 / Fold change vs veh, NDUFAF7 / RFU, SLC12A2 / Fold change vs veh, SLC12A2 / RFU, IBTK / Fold change vs veh, IBTK / RFU, ESF1 / Fold change vs veh, ESF1 / Fold change vs veh, TMEM50B / RFU, TAOK1 / Fold change vs veh, TAOK1 / RFU, ACBD3 / Fold change vs veh, ACBD3 / RFU, TMA16 / Fold change vs veh, TMA16 / RFU, RWDD3 / Fold change vs veh, RWDD3 / RFU, BCAT1 / Fold change vs veh, BCAT1 / RFU, EDEM3 / Fold change vs veh, EDEM3 / RFU, TMEM33 / Fold change vs veh, TMEM33 / RFU, WDR75 / Fold change vs veh, WDR75 / RFU, AHCTF1 / Fold change vs veh, AHCTF1 / RFU, TFRC / Fold change vs veh, TFRC / RFU, ZDHHC17 / Fold change vs veh, ZDHHC17 / RFU, NOM1 / Fold change vs veh, NOM1 / RFU, ARL8B / Fold change vs veh, ARL8B / RFU, ZBTB11 / Fold change vs veh, ZBTB11 / RFU, TAMM41 / Fold change vs veh, TAMM41 / RFU, KIAA1704 /// LOC100996395 / Fold change vs veh, KIAA1704 /// LOC100996395 / RFU, ING1 / Fold change vs veh, ING1 / RFU, TRMT61B / Fold change vs veh, TRMT61B / RFU, FUBP3 / Fold change vs veh, FUBP3 / RFU, TP53 / Fold change vs veh, TP53 / RFU, TNKS2 / Fold change vs veh, TNKS2 / RFU, ZFP14 / Fold change vs veh, ZFP14 / RFU, ACTR2 / Fold change vs veh, ACTR2 / RFU, PPP3R1 / Fold change vs veh, PPP3R1 / RFU, PIK3R1 / Fold change vs veh, PIK3R1 / RFU, HNRNPA1 / Fold change vs veh, HNRNPA1 / RFU, RNF170 / Fold change vs veh, RNF170 / RFU, ZNF28 / Fold change vs veh, ZNF28 / RFU, RNGTT / Fold change vs veh, RNGTT / RFU, OGT / Fold change vs veh, OGT / RFU, BRD1 / Fold change vs veh, BRD1 / RFU, MARS / Fold change vs veh, MARS / RFU, ZNF655 / Fold change vs veh, ZNF655 / RFU, FAHD1 / Fold change vs veh, FAHD1 / RFU, BDP1 / Fold change vs veh, BDP1 / RFU, LRRCC1 / Fold change vs veh, LRRCC1 / RFU, ARID1A / Fold change vs veh, ARID1A / RFU, ZNF146 / Fold change vs veh, ZNF146 / RFU, ZNF330 / Fold change vs veh, ZNF330 / RFU, GPN3 / Fold change vs veh, GPN3 / RFU, C9orf123 / Fold change vs veh, C9orf123 / RFU, N4BP2L2 / Fold change vs veh, N4BP2L2 / RFU, ARFIP1 / Fold change vs veh, ARFIP1 / RFU, FAM179B / Fold change vs veh, FAM179B / RFU, BCL10 / Fold change vs veh, BCL10 / RFU, UHRF1BP1L / Fold change vs veh, UHRF1BP1L / RFU, BET1 / Fold change vs veh, BET1 / RFU, CNOT2 / Fold change vs veh, CNOT2 / RFU, ZNF268 / Fold change vs veh, ZNF268 / Fold change vs veh, ZNF507 / RFU, DGCR2 / Fold change vs veh, DGCR2 / RFU, WDSUB1 / Fold change vs veh, WDSUB1 / Fold change vs veh, HSP90B1 /// MIR3652 / RFU, ADSS / Fold change vs veh, ADSS / RFU, GK / Fold change vs veh, GK / RFU, ZNF148 / Fold change vs veh, ZNF148 / RFU, TAF9 / Fold change vs veh, TAF9 / RFU, SLC1A5 / Fold change vs veh, SLC1A5 / RFU, SLMO2 / Fold change vs veh, SLMO2 / RFU, ABCC4 / Fold change vs veh, ABCC4 / RFU, LOC101060439 /// RAP1B / Fold change vs veh, LOC101060439 /// RAP1B / RFU, RFX7 / Fold change vs veh, RFX7 / RFU, GTPBP10 / Fold change vs veh, GTPBP10 / RFU, CNEP1R1 / Fold change vs veh, CNEP1R1 / RFU, BIVM-ERCC5 /// ERCC5 / Fold change vs veh, BIVM-ERCC5 /// ERCC5 / RFU, ILF3 / Fold change vs veh, ILF3 / RFU 11762660_at / Fold change /veh 11762660_at / RFU VCAN (11757783_s_at) / Fold change /veh VCAN (11757783_s_at) / RFU DDX43 (11728927_at) / Fold change /veh DDX43 (11728927_at) / RFU KRT8 (11758188_x_at) / Fold change /veh KRT8 (11758188_x_at) / RFU NKD1 (11759106_at) / Fold change /veh NKD1 (11759106_at) / RFU SRD5A1 (11742802_a_at) / Fold change /veh SRD5A1 (11742802_a_at) / RFU TPSAB1 /// TPSB2 (11721975_s_at) / Fold change /veh TPSAB1 /// TPSB2 (11721975_s_at) / RFU GSTM3 (11746129_a_at) / Fold change /veh GSTM3 (11746129_a_at) / RFU IL23R (11737362_x_at) / Fold change /veh IL23R (11737362_x_at) / RFU TMEM51 (11727254_a_at) / Fold change /veh TMEM51 (11727254_a_at) / RFU PIWIL2 (11732686_x_at) / Fold change /veh PIWIL2 (11732686_x_at) / RFU ORM1 (11744905_x_at) / Fold change /veh ORM1 (11744905_x_at) / RFU CCDC152 (11743942_at) / Fold change /veh CCDC152 (11743942_at) / RFU ECM1 (11717891_a_at) / Fold change /veh ECM1 (11717891_a_at) / RFU IL23R (11748794_a_at) / Fold change /veh IL23R (11748794_a_at) / RFU TNFAIP8L3 (11732012_x_at) / Fold change /veh TNFAIP8L3 (11732012_x_at) / RFU MBOAT4 (11741988_at) / Fold change /veh MBOAT4 (11741988_at) / RFU 11764193_at / Fold change /veh 11764193_at / RFU TMEM53 (11763286_at) / Fold change /veh TMEM53 (11763286_at) / RFU MAGEB2 (11727129_at) / Fold change /veh MAGEB2 (11727129_at) / RFU TMEM200A (11744735_a_at) / Fold change /veh TMEM200A (11744735_a_at) / RFU CCDC152 (11751479_a_at) / Fold change /veh CCDC152 (11751479_a_at) / RFU FAM211A (11726209_a_at) / Fold change /veh FAM211A (11726209_a_at) / RFU RGS16 (11746705_a_at) / Fold change /veh RGS16 (11746705_a_at) / RFU VCAN (11755009_s_at) / Fold change /veh VCAN (11755009_s_at) / RFU RHOB (11743442_s_at) / Fold change /veh RHOB (11743442_s_at) / RFU RGS16 (11720943_a_at) / Fold change /veh RGS16 (11720943_a_at) / RFU RGS16 (11720944_at) / Fold change /veh RGS16 (11720944_at) / RFU, VPS4B / Fold change vs veh, VPS4B / RFU, CREB1 / Fold change vs veh, CREB1 / RFU, DNAJC13 / Fold change vs veh, DNAJC13 / RFU, GNAQ / Fold change vs veh, GNAQ / RFU, CDK5R1 / Fold change vs veh, CDK5R1 / RFU, ZRANB3 / Fold change vs veh, ZRANB3 / RFU, CUL4A / Fold change vs veh, CUL4A / RFU, CCNY / Fold change vs veh, CCNY / RFU, UFL1 / Fold change vs veh, UFL1 / RFU, COG3 / Fold change vs veh, COG3 / RFU, DIAPH2 / Fold change vs veh, DIAPH2 / RFU, SKA2 / Fold change vs veh, SKA2 / RFU, AFF3 / Fold change vs veh, AFF3 / RFU, LMF1 / Fold change vs veh, LMF1 / RFU, IPO11 / Fold change vs veh, IPO11 / RFU, DFFB / Fold change vs veh, DFFB / RFU, FOXP1 / Fold change vs veh, FOXP1 / RFU, CARD8 / Fold change vs veh, CARD8 / RFU, STRN3 / Fold change vs veh, STRN3 / RFU, ADK / Fold change vs veh, ADK / RFU, RASSF2 / Fold change vs veh, RASSF2 / RFU, WIPF1 / Fold change vs veh, WIPF1 / RFU, LARP1B / Fold change vs veh, LARP1B / RFU, RASA1 / Fold change vs veh, RASA1 / RFU, RB1 / Fold change vs veh, RB1 / RFU, PPFIA1 / Fold change vs veh, PPFIA1 / RFU, MAT2A / Fold change vs veh, MAT2A / RFU, CCT5 / Fold change vs veh, CCT5 / RFU, WDR92 / Fold change vs veh, WDR92 / RFU, CUX1 / Fold change vs veh, CUX1 / RFU, TTC7A / Fold change vs veh, TTC7A / RFU, TMEM135 / Fold change vs veh, TMEM135 / RFU, DEPTOR / Fold change vs veh, DEPTOR / RFU, CPM / Fold change vs veh, CPM / RFU, DNAJB6 / Fold change vs veh, DNAJB6 / RFU, CACNA2D3 / Fold change vs veh, CACNA2D3 / RFU, DTX4 / Fold change vs veh, DTX4 / RFU, TFCP2 / Fold change vs veh, TFCP2 / RFU, GMCL1 /// GMCL1P1 / Fold change vs veh, GMCL1 /// GMCL1P1 / RFU, AEBP2 / Fold change vs veh, AEBP2 / RFU, SNHG1 /// SNORD22 /// SNORD25 /// SNORD26 /// SNORD27 /// SNORD28 /// SNORD29 /// SNORD31 / Fold change vs veh, SNHG1 /// SNORD22 /// SNORD25 /// SNORD26 /// SNORD27 /// SNORD28 /// SNORD29 /// SNORD31 / Fold change (Aza/veh), C12orf56 (ProbeSet 11735607_a_at) / Fold change (ACY-1035/veh), C12orf56 (ProbeSet 11735607_a_at) / Fold change (Aza/veh), FGFR1OP (ProbeSet 11751329_s_at) / Fold change (ACY-1035/veh), FGFR1OP (ProbeSet 11751329_s_at) / Fold change (Aza/veh), VPS36 (ProbeSet 11739960_a_at) / Fold change (ACY-1035/veh), VPS36 (ProbeSet 11739960_a_at) / RFU SYPL1 (11715823_x_at) / Fold change /veh SYPL1 (11715823_x_at) / RFU IGFBP7 (11715501_s_at) / Fold change /veh IGFBP7 (11715501_s_at) / RFU REEP3 (11722064_at) / Fold change /veh REEP3 (11722064_at) / RFU IGLL1 (11728026_x_at) / Fold change /veh IGLL1 (11728026_x_at): dose or concentration left out as unconfirmed. The class given is cell-based, human. As to conditions: ProbeSet 11720566_at; LIST D.

On to `Nc1ncn([C@@H]2O[C@H](CO)[C@@H](O)[C@H]2O)c(=O)n1` [azacitidine], for which the “Fold change vs veh, BCAT1” value amounted to 0.67.
